Consider two substances from patent US7494824B2, “Interactive system for presenting and eliminating substances” (Max-Planck-Gesellschaft zur Förderung der Wissenschaften e. …, priority 1997, dated 2009).

Series [1] is described as follows: Urea assay of enzyme activity, pH titration, compared with non-conjugated urease. In kind it is biochemical. As for the experimental part:
(§1) As model enzyme, urease (EC 3.5.1.5., available from Sigma, order no. U 1500) is used. The preparation of a PEG-coupled urease preparation: 100 mg urease (type III, specific activity 20,000 to 30,000 U/g) are dissolved in 80 ml 0.1-mol borate buffer (pH 8) and added to 250 mg methoxy polyethylene glycol (25,000)-4-nitrophenyl carbonate and incubated for 24 h at 5° C. The reaction is stopped by a several times higher molar excess of TRIS, dialyzed against TRIS-HCl (pH 8) and developed in a HP-Q-sepharose column having a linear NaCl gradient (pH 8). The PEG urease conjugate elutes-at 180 to 200 mmol NaCl. The yield of PEG urease conjugate is 30-40%. The enzyme activity is measured by means of a urea assay. The cleaving activity is monitored by way of pH titration measuring and compared with non-conjugated urease. […] The urease coupled with 25 kD-polyethylene glycol is applied in a concentration of 2 mg (based on the protein content of the conjugate) to a miniaturized experimental capillary dialyzer having a surface of 50 cm^2. Already after the first circulation, more than 90% of the urease are immobilized on the surface. By the fifth recirculation cycle, the PEG urease is firmly installed on the surface of the membrane. […] A blood plasma solution (50 ml containing 30 mg urea) is applied to the urease-doped PMMA capillary dialyzer system. […]

Series [2] can be described thus: Immobilization of PEG urease on miniaturized experimental PMMA capillary dialyzer. As to conditions: 2 mg on 50 cm^2 dialyzer, after the first circulation. As for the experimental part:
as §1

Series [3] can be described thus: Urea breakdown in blood plasma solution on urease-doped PMMA capillary dialyzer system. In kind it is biochemical. As for the experimental part: As model enzyme, urease (EC 3.5.1.5., available from Sigma, order no. U 1500) is used. The preparation of a PEG-coupled urease preparation: 100 mg urease (type III, specific activity 20,000 to 30,000 U/g) are dissolved in 80 ml 0.1-mol borate buffer (pH 8) and added to 250 mg methoxy polyethylene glycol (25,000)-4-nitrophenyl carbonate and incubated for 24 h at 5° C. The reaction is stopped by a several times higher molar excess of TRIS, dialyzed against TRIS-HCl (pH 8) and developed in a HP-Q-sepharose column having a linear NaCl gradient (pH 8). The PEG urease conjugate elutes-at 180 to 200 mmol NaCl. The yield of PEG urease conjugate is 30-40%. The enzyme activity is measured by means of a urea assay. The cleaving activity is monitored by way of pH titration measuring and compared with non-conjugated urease. […] The urease coupled with 25 kD-polyethylene glycol is applied in a concentration of 2 mg (based on the protein content of the conjugate) to a miniaturized experimental capillary dialyzer having a surface of 50 cm^2. Already after the first circulation, more than 90% of the urease are immobilized on the surface. By the fifth recirculation cycle, the PEG urease is firmly installed on the surface of the membrane. […] A blood plasma solution (50 ml containing 30 mg urea) is applied to the urease-doped PMMA capillary dialyzer system. In the eluate of the experimental PEG-urease-PMMA membrane, the remaining amounts of urea are identified after 5, 10, 20, and 30 minutes by way of an enzyme assay. […] The ammonia test in the blood is positive during the last 25 minutes of the experiment. From the analysis, it can be doubtlessly concluded that a pegylated enzyme, bonded to the PMMA membrane, develops a local enzyme activity and is able to generate corresponding specific interactions with its substrate in the circulating blood.

A further series addresses thrombin (Homo sapiens, UniProt P00734). As to conditions: previous analyses, Dickneite G. et al.; cited from earlier work.

Regarding “PEG urease: urease (EC 3.5.1.5., Sigma) coupled with 25 kD-polyethylene glycol”, the “influence of pegylation on the ureolytic activity of the enzyme” value in series [1] is listed as “slightly activity-increasing”. Moreover, the “urease immobilized on the surface” value in series [2] is given as “more than 90%”. Moreover, in series [3] (50 ml plasma containing 30 mg urea, after 30 min), the “remaining urea in the eluate” value is given as “unbound urea cannot be identified anymore”. For the same substance, the “urea concentration in the blood plasma” value in series [3] (50 ml plasma containing 30 mg urea, within the first 10 min) is recorded as “decreases rapidly”. Further, in series [3] (during the last 25 minutes of the experiment), the “ammonia test in the blood” value is “positive”.
On to Mtr-Asn-D-Adf-Pip, for which the “thrombin inhibiting agent quality” value at thrombin is “highly specific and effective”.
